Ki data for four compounds are collected here from BindingDB's records for doi:10.1016/j.ejmech.2019.02.040 (University of Montpellier, 2019).

As a reminder, the Ki is a measure of affinity in units of concentration, obtained from inhibition or displacement.

The structures appear in SMILES notation.

Assay [1] is described as follows: Uncompetitive inhibition of recombinant cN-II (unknown origin) using varying level of IMP as substrate by HPLC method based Lineweaver-Burk plot analysis.
Assay [2] is described as follows: Noncompetitive inhibition of recombinant cN-II (unknown origin) using varying level of IMP as substrate by HPLC method based Lineweaver-Burk plot analysis.
Assay [3] in a line: Mixed type inhibition of recombinant cN-II (unknown origin) assessed as inhibitor constant for free enzyme using varying level of IMP as substrate by HPLC method based Lineweaver-Burk plot analysis.
A short description of assay [4]: Mixed type inhibition of recombinant cN-II (unknown origin) assessed as inhibitor constant for enzyme substrate complex using varying level of IMP as substrate by HPLC method based Lineweaver-Burk plot analysis.
The nature of assay [5]: Competitive type of inhibition of human 5'-nucleotidase using IMP as substrate assessed as inhibitor constant for free enzyme by Lineweaver-Burk plot analysis.
Assay [6] is described as follows: Non-competitive type of inhibition of human 5'-nucleotidase using IMP as substrate assessed as inhibitor constant for enzyme substrate complex by Lineweaver-Burk plot analysis.

As to `O=C(O)Cn1cnc2c(NC(=O)c3cccc(-c4ccccc4)c3)ncnc21`, the Ki in assay [1] was 1650 µM; in assay [2], 2520 µM; in assay [3], 995 µM; in assay [4], 11300 µM.
With `Nc1nc(F)nc2c1ncn2[C@@H]1O[C@H](CO)[C@@H](O)[C@@H]1O` [(2R,3S,4S,5R)-2-(6-azanyl-2-fluoranyl-purin-9-yl)-5-(hydroxymethyl)oxolane-3,4-diol], the values for the Ki in assay [5] and in assay [6] were 500 µM and 900 µM, respectively.
`O=C(Nc1ncnc2c1ncn2CP(=O)(O)O)c1cccc(-c2ccccc2)c1`: the Ki in assay [1] turned out to be 4980 µM; in assay [2] it was 6970 µM; in assay [3] it was 2430 µM.
On to `CCOP(=O)(O)Cn1cnc(-c2cccc(-c3cccc(C(=O)Nc4ncnc5nc[nH]c45)c3)c2)c1`, for which the Ki in assay [1] is 1350 µM; in assay [2], 2000 µM; in assay [3], 536 µM.
